Test results from US20250134889A1, “TARGETING IRE1 KINASE AND FMRP FOR PROPHYLAXIS, MANAGEMENT AND TREATMENT OF ATHEROSCLEROSIS” (CEDARS-SINAI MEDICAL CENTER, priority 2022, published 2025).

Test system: IRE1 kinase activity
Assay: ER stress-induced IRE1 and FMRP phosphorylation in transfected MEFs (western blot)
Assay type: cell-based, mouse
Details: AMG-18 25 μM 1 hour pre-treatment, TG 600 nM 4 hours
Protocol: FIGS. 1A-1K depict FMRP is a new inositol-requiring enzyme-1 (IRE1) kinase substrate. A representative blot is shown from at least n=3 independent experiments. Data are mean±SEM. Unpaired 1-test with Welch's correction or paired 1-test. * P≤0.05, ** P≤0.01, *** P≤0.001. • 1A. STING analysis of published IRE1 interactome proteins in relation to FMRP (Acosta-Alvear et al., 2018). • 1B. HEK293T cells were co-transfected with IRE1 and FMRP plasmids and stimulated with TG (600 nM) or TM (1 mg/ml) for 2 hours. Protein lysates were immunoprecipitated (IP) with anti-IRE1 or IgG (control) antibodies and analyzed by Western blotting using specific antibodies for FMRP and IRE1 (n=3). • 1C. RAW 264.7 mouse macrophages were treated with either oxLDL (50 μg/ml) or TG (300 nM) for 6 hours. Protein lysates were treated with λ Phosphatase (PPase) for 30 minutes and analyzed by western blotting using specific antibodies for pFMRP, FMRP, pIRE1, IRE1 and β-Actin. pFMRP/FMRP fold induction is depicted above the blots (n=6). • 1D. […] Protein lysates were analyzed by western blotting using specific antibodies for pFMRP, FMRP, pIRE1, IRE1 and β-Actin. pFMRP/FMRP-fold induction is depicted above the blots (n=5). • 1E. […] Protein lysates were analyzed by western blotting using specific antibodies for pFMRP, FMRP, pIRE1, IRE1 and β-Actin. pFMRP/FMRP fold induction is depicted above the blots (n=4). • 1F. […]

## Cc1ccc2c(NS(=O)(=O)c3ccccc3Cl)cccc2c1Oc1ncccc1-c1ccnc(N[C@H]2CCCNC2)n1 [AMG-18]
  FMRP phosphorylation (pFMRP/FMRP): clearly reducing
  IRE1 phosphorylation: prevented
